Measurements published in publication PMC4876444, “Two-Photon Enzymatic Probes Visualizing Sub-cellular/Deep-brain Caspase Activities in Neurodegenerative Models” (Scientific Reports, 2016).
Where a SMILES comes first, the peptide text is derived from it. The star is where a group is joined. NH(6-Ac-2-naphthyl) = CC(=O)c1ccc2cc(N*)ccc2c1

Tests used:
[1] = molecular target: T1, caspase-1 (Homo sapiens, UniProt P29466); test: S/N ratio of caspase-1 probes in BV2 lysates spiked with caspase-1; format: biochemical; details: probe 6 μM, 25 μg BV2 lysates spiked with caspase-1, 37 °C, 2 h; among the four caspase-1 probes
T1 construct: purchased Merck
T1 sequence (P29466 120-297 limits assumed): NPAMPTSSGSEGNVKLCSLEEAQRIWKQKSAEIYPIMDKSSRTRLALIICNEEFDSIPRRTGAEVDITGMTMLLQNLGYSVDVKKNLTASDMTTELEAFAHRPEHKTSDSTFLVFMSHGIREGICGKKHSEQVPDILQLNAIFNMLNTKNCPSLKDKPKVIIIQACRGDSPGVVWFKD
T1 sequence (P29466 317-404 limits assumed): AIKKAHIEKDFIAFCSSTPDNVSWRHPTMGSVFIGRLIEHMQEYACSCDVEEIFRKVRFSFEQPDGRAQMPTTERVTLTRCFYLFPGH
Procedure: Figure 2 Photophysical and enzymatic properties of caspase probes. (a) Photophysical and kinetic properties of probes and free dyes. All measurements were taken in 50 mM HEPES, 50 mM NaCl, 0.1% CHAPS, 10 mM EDTA, 5% glycerol, 10 mM DTT, at pH = 7.2. (b) Time-dependent ratiometric fluorescence changes of C1RB (6 μM) incubated with caspase-1 (10 nM) over 2 h at room temperature. Data were obtained by plotting the normalized ratio of fluorescence intensity at 500 nm (F500 nm) over that at 450 nm (F450 nm). (Inset) time-dependent fluorescence emission spectra with λex = 350 nm. (c) Time-dependent “Turn-ON” effect of C1FS (6 μM) incubated with caspase-1 (10 nM) measured and normalized at 460 nm (F460 nm) over 2 h at room temperature, with the corresponding fluorescence emission spectra (inset). λex = 350 nm. (d) Normalized S/N ratio of each of the four caspase-1 probes (6 μM) incubated with 25 μg of BV2 lysates spiked with different concentrations of caspase-1 (37 °C, t = 2 h). S and N represent the fluorescence emission intensity of each reaction solution in the presence (S) and absence (N) of caspase-1. […] (−) no caspase; (caspase-1) 1.5 nM; (caspase-3) 0.8 nM; (caspase-6) 0.2 μM; (caspase-8) 10 nM; (caspase-9) 0.5 μM. […] Normalized, relative fluorescence (RFU) values were obtained after 2-h incubation at room temperature. […]

[2] = test system: NIH/3T3, BV2 and HeLa cells; test: XTT cytotoxicity assay; format: cell-based, mouse, human; details: XTT assay, 12, 30, 60, 120 μM, 24 h
Procedure: Supplementary Figure 4. Cytotoxicity of two-photon enzymatic probes (12, 30, 60, 120 μM) in mammalian cells (NIH/3T3, BV2 and HeLa) after incubation for 24 h, as determined by XTT assay. […]
Detection of caspase activities in mammalian cells and tissues
Cell culture. The mouse embryonic fibroblast cell line (NIH/3T3), mouse microglial cell line (BV2) and human epithelial carcinoma cell line (HeLa) used in our experiments were cultured in Dulbecco’s Modified Eagle's Medium (DMEM) supplemented with 10% (for NIH/3T3 and HeLa) or 5% (for BV2) fetal bovine serum (FBS), 100.0 mg/L streptomycin and 100 IU/mL penicillin in a humidified atmosphere of 5% CO2 at 37 °C.
XTT assay. The cytotoxicity of our probes was determined by using the XTT colorimetric cell proliferation kit (Roche) following manufacturer’s guidelines. Briefly, NIH/3T3, BV2 and HeLa cells were seeded in 20~30% confluency (since they will reach >50% confluency within 24 h) into 96-well plates and incubated overnight before the addition of probes with concentrations of 12 μM, 30 μM, 60 μM and 120 μM, respectively. Probes were applied from DMSO stocks whereby DMSO never exceeded 1% in the final solution. The same volume of DMSO was used as a negative control; and the same volume of STS (200 nM) was used as a positive control. After a total treatment time of 24 h, proliferation was assayed using the XTT assay (Supplementary Fig. 4). […]

[3] = not given; remark: listed apart in the source
[4] = not given; remark: listed apart in the source
[5] = test system: caspase-1 in primary cortical neurons; test: TPFM of caspase-1 activation in glucose-deprived primary cortical neurons; format: cell-based, mouse; details: 50 μM, added 1 h prior to the probe (t = 7 h during GD)
Procedure: NC: neuron cells incubated in normal neurobasal medium.
All two-photon images were taken on a Leica TCS SP5X Confocal Microscope System. […] Dissociated neuron-enriched cell cultures of cerebral cortex were established from day 16 C57BL/6 mouse embryos, as described[53]. Primary neurons were cultured in the neurobasal medium (Gibco) with 2% B27 and 0.5 mM GlutaMAX. Experiments were performed in 7–9 day-old cultures. For glucose-deprivation studies, glucose-free neurobasal medium was used (with other components fixed). The cultured neurons were incubated in glucose-free medium for 8 h, while control cells were incubated in normal neurobasal medium.
Caspase-1-like activities detected in primary cortical neurons of C57BL/6 mouse underwent
glucose-deprivation (GD) treatment.
neurons grown in normal culture medium and incubated with C1RB/C1FS for 1 h (NC). Panels 2/5: primary neuron
underwent GD induction for 8 h and incubated with C1RB/C1FS for 1 h.
(50 μM) was added 1 h earlier (t = 7 h) than C1RB/C1FS.
TPFM imaging of caspase activities in primary cortical neurons and fresh tissues.
Dissociated neuron-enriched cell cultures of cerebral cortex were established from day 16 C57BL/6 mouse embryos, as described.14 Primary neurons were cultured in the neurobasal medium (Gibco) with 2% B27 and 0.5 mM GlutaMAX. Experiments were performed in 7-9 day-old cultures. […]

Structure (SMILES) | detection limit of caspase-1 activity [1] | cytotoxicity [2] | λem (emission maximum) | λex (absorption/excitation maximum) [3] | δΦ (two-photon action cross-section) [4] | effect of inhibitor on C1RB/C1FS fluorescence signals in glucose-deprived neurons [5]
CC(=O)N[C@@H](Cc1c[nH]c2ccccc12)C(=O)N[C@@H](CCC(=O)O)C(=O)N[C@@H](Cc1c[nH]cn1)C(=O)N[C@@H](CC(=O)O)C(=O)Nc1ccc2cc(C(C)=O)ccc2c1 [C1RB, Ac-WEHD-AAN] (Ac-WEHD-{NH(6-Ac-2-naphthyl)}) | lowest detection limit | minimally cytotoxic | 448 nm | 316 nm | 2.3 GM | –
CCO[C@@H]1OC(=O)C[C@@H]1NC(=O)[C@@H]1CCCN2C(=O)CC[C@H](NC(=O)c3nccc4ccccc34)C(=O)N12 [Pralnacasan] | – | – | – | – | – | inhibited
